Converted amounts (≈) assume the structure as drawn. Where two headings read alike, the source gives them in different places.
Assays:
NTM = assay: In-vitro activity against NTM, overall conclusion; type: cell-based, nontuberculous mycobacteria; conditions: overall conclusion from Tables 1-3
Protocol: In this embodiment, an inhibitory test is performed on pathogenic bacteria, i.e. Mycobacterium avium, Mycobacterium abscessus and Mycobacterium kansasii belonging to the nontuberculous mycobacteria using the rifamycin-nitroimidazole coupling molecule of the present invention and positive controls, and then Minimum Inhibitory Concentration (MIC) and Minimum Bactericidal Concentration (MBC) are obtained. Clarithromycin, moxifloxacin, amikacin, rifampicin, rifabutin, ciprofloxacin and metronidazole are used as positive controls. The test strains are provided by KnowBio company, and the Chinese clinically isolated strains are derived from Shanghai Pulmonary Hospital.
The inhibitory test of this embodiment is performed by the micro broth dilution method using two different culture mediums: (1) MH (Mueller-Hinton) micro broth dilution method: using MH culture medium (or culture solution), wherein the concentration of calcium and magnesium ions in MH broth (cation-adjusted) is consistent with that in the Guideline of the Clinical and Laboratory Standards Institute (CLSI; M7-A7); and (2) 7H9 micro broth dilution method: using 7H9 culture medium (or culture solution, provided by Sigma-Aldrich).

Mycobacterium abscessus [1] = assay: MBC, plating of MIC wells and CFU count; type: cell-based; conditions: Mycobacteroides abscessus, read-out: Minimum Bactericidal Concentration (MBC)
[2] = system: Mycobacterium intracellulare; assay: MIC, micro broth dilution with resazurin readout; type: cell-based; conditions: MH Culture Medium, read-out: Minimum Inhibitory Concentration (MIC)
[3] = system: Mycobacterium massiliense; assay: MIC, micro broth dilution with resazurin readout; type: cell-based; conditions: Mycobacteroides abscessus, MH Culture Medium, read-out: Minimum Inhibitory Concentration (MIC)
Mycobacterium kansasii [4] = assay: MIC, micro broth dilution with resazurin readout; type: cell-based; conditions: read-out: Minimum Inhibitory Concentration (MIC)
Mycodacterium chelonei = assay: MIC, micro broth dilution with resazurin readout; type: cell-based; conditions: MH Culture Medium; Chelonei (standard strain); read-out: Minimum Inhibitory Concentration (MIC)
Mycobacterium fortuitum = assay: MIC, micro broth dilution with resazurin readout; type: cell-based; conditions: Mycolicibacterium fortuitum, MH Culture Medium, read-out: Minimum Inhibitory Concentration (MIC)
Mycobacterium kansasii [5] = assay: MBC, plating of MIC wells and CFU count; type: cell-based; conditions: read-out: Minimum Bactericidal Concentration (MBC)
Mycobacterium avium [6] = assay: MBC, plating of MIC wells and CFU count; type: cell-based; conditions: read-out: Minimum Bactericidal Concentration (MBC)
Mycobacterium avium [7] = assay: MIC, micro broth dilution with resazurin readout; type: cell-based; conditions: read-out: Minimum Inhibitory Concentration (MIC)
Mycobacterium abscessus [8] = assay: MIC, micro broth dilution with resazurin readout; type: cell-based; conditions: Mycobacteroides abscessus, read-out: Minimum Inhibitory Concentration (MIC)
[9] = 7H9 Broth, Mycobacterium avium Rough
[10] = 7H9 Broth, Mycobacterium avium Smooth
[11] = MH Broth, Mycobacterium avium Rough
[12] = MH Broth, Mycobacterium avium Smooth

For `CO[C@H]1/C=C/O[C@@]2(C)Oc3c(C)c(O)c4c(c3C2=O)C2=NC3(CCN(CCn5c([N+](=O)[O-])cnc5C)CC3)NC2=C(NC(=O)/C(C)=C\C=C\[C@H](C)[C@H](O)[C@@H](C)[C@@H](O)[C@@H](C)[C@H](OC(C)=O)[C@@H]1C)C4=O` [Compound I], the “in-vitro activity against NTM” value (NTM) was “effective and broad in-vitro activity against NTM”, the MBC (Mycobacterium abscessus [1]; 7H9 Broth) was 1 µg/mL (≈ 1.06 µM) and the MBC (Mycobacterium abscessus [1]; MH Broth) was 16 µg/mL (≈ 16.9 µM). It also gave an MIC ([2]; Intracellulare (standard strain)) of 0.0625 µg/mL (≈ 0.0662 µM), an MIC ([2]; clinically isolated strain Intracellulare (S90)) of 0.25 µg/mL (≈ 0.265 µM) and an MIC ([2]; clinically isolated strain Intracellulare (S261)) of 0.25 µg/mL (≈ 0.265 µM). The MIC ([2]; clinically isolated strain Intracellulare (S269)) was 0.125 µg/mL (≈ 0.132 µM), the MIC ([2]; clinically isolated strain Intracellulare (S290)) was 0.25 µg/mL (≈ 0.265 µM) and the MIC ([2]; clinically isolated strain Intracellulare (S291)) was 0.125 µg/mL (≈ 0.132 µM). It also gave an MIC ([2]; clinically isolated strain Intracellulare (S298)) of 0.25 µg/mL (≈ 0.265 µM), an MIC ([2]; clinically isolated strain Intracellulare (S442)) of 0.0625 µg/mL (≈ 0.0662 µM) and an MIC ([2]; clinically isolated strain Intracellulare (S541)) of 0.125 µg/mL (≈ 0.132 µM). It also gave an MIC ([2]; clinically isolated strain Intracellulare (S623)) of 0.25 µg/mL (≈ 0.265 µM), an MIC ([2]; clinically isolated strain Intracellulare (ZPS)) of 0.0625 µg/mL (≈ 0.0662 µM) and an MIC ([3]; clinically isolated strain Massiliense (D10)) of 64 µg/mL (≈ 67.8 µM). The MIC ([3]; clinically isolated strain Massiliense (D14)) was 64 µg/mL (≈ 67.8 µM), the MIC ([3]; clinically isolated strain Massiliense (D18)) was 64 µg/mL (≈ 67.8 µM) and the MIC (Mycobacterium kansasii [4]; 7H9 Broth) was 2 µg/mL (≈ 2.12 µM). It also gave an MIC (Mycobacterium kansasii [4]; MH Broth) of 2 µg/mL (≈ 2.12 µM), an MIC (Mycobacterium kansasii [4]; MH Culture Medium, Kansasii (standard strain)) of 0.0625 µg/mL (≈ 0.0662 µM) and an MIC (Mycobacterium kansasii [4]; MH Culture Medium, clinically isolated strain Kansasii (S9)) of 0.0625 µg/mL (≈ 0.0662 µM). The MIC (Mycobacterium kansasii [4]; MH Culture Medium, clinically isolated strain Kansasii (S199)) was 0.0625 µg/mL (≈ 0.0662 µM), the MIC (Mycobacterium kansasii [4]; MH Culture Medium, clinically isolated strain Kansasii (S520)) was 0.0625 µg/mL (≈ 0.0662 µM) and the MIC (Mycobacterium kansasii [4]; MH Culture Medium, clinically isolated strain Kansasii (S609)) was 0.0625 µg/mL (≈ 0.0662 µM). It also gave an MIC (Mycodacterium chelonei) of 32 µg/mL (≈ 33.9 µM), an MIC (Mycobacterium fortuitum; Fortuitum (standard strain)) of 16 µg/mL (≈ 16.9 µM) and an MIC (Mycobacterium fortuitum; clinically isolated strain Fortuitum (S103)) greater than 64 µg/mL. For the same compound, the MIC (Mycobacterium fortuitum; clinically isolated strain Fortuitum (S111)) was 4 µg/mL (≈ 4.24 µM), the MBC (Mycobacterium kansasii [5]; 7H9 Broth) was 8 µg/mL (≈ 8.47 µM) and the MBC (Mycobacterium kansasii [5]; MH Broth) was 2 µg/mL (≈ 2.12 µM). For the same compound, the MBC (Mycobacterium avium [6]; [9]) was 4 µg/mL (≈ 4.24 µM), the MBC (Mycobacterium avium [6]; [10]) was 16 µg/mL (≈ 16.9 µM) and the MBC (Mycobacterium avium [6]; [11]) was 4 µg/mL (≈ 4.24 µM). The MBC (Mycobacterium avium [6]; [12]) was 16 µg/mL (≈ 16.9 µM), the MIC (Mycobacterium avium [7]; [9]) was 4 µg/mL (≈ 4.24 µM) and the MIC (Mycobacterium avium [7]; [10]) was 4 µg/mL (≈ 4.24 µM). It also gave an MIC (Mycobacterium avium [7]; [11]) of 4 µg/mL (≈ 4.24 µM), an MIC (Mycobacterium avium [7]; [12]) of 4 µg/mL (≈ 4.24 µM) and an MIC (Mycobacterium avium [7]; MH Culture Medium, Avium (standard strain)) of 0.0625 µg/mL (≈ 0.0662 µM). The MIC (Mycobacterium avium [7]; MH Culture Medium, clinically isolated strain Avium (S31)) was 0.0625 µg/mL (≈ 0.0662 µM), the MIC (Mycobacterium avium [7]; MH Culture Medium, clinically isolated strain Avium (S123)) was 0.0625 µg/mL (≈ 0.0662 µM) and the MIC (Mycobacterium avium [7]; MH Culture Medium, clinically isolated strain Avium (S559)) was 0.0625 µg/mL (≈ 0.0662 µM). For the same compound, the MIC (Mycobacterium avium [7]; MH Culture Medium, clinically isolated strain Avium (S568)) was 0.25 µg/mL (≈ 0.265 µM), the MIC (Mycobacterium avium [7]; MH Culture Medium, clinically isolated strain Avium (S577)) was 0.0625 µg/mL (≈ 0.0662 µM) and the MIC (Mycobacterium avium [7]; MH Culture Medium, clinically isolated strain Avium (S597)) was 0.125 µg/mL (≈ 0.132 µM). The MIC (Mycobacterium avium [7]; MH Culture Medium, clinically isolated strain Avium (S602)) was 0.0625 µg/mL (≈ 0.0662 µM), the MIC (Mycobacterium abscessus [8]; 7H9 Broth) was 1 µg/mL (≈ 1.06 µM) and the MIC (Mycobacterium abscessus [8]; MH Broth) was 1 µg/mL (≈ 1.06 µM).

Source: patent publication US20200360352A1, “USE OF RIFAMYCIN-NITROIMIDAZOLE COUPLING MOLECULE” (priority 2019, published 2020)
